Test results published in patent publication US20240208986A1, “PHENYL AZEPINES AS RIPK1 INHIBITORS AND METHODS OF USE THEREOF” (Merck Sharp & Dohme LLC, priority 2021, published 2024).

Target: RIPK1 (recombinant GST-RIPK1 kinase domain, residues 1-327) (Homo sapiens (Human), UniProt Q13546)
Assay: RIPK1-ADP-Glo Enzymatic Assay
Format: biochemical
Details: 25 nM GST-RIPK1, 300 μM ATP, 3 μM dephosphorylated-MBP; 30 minutes pre-incubation, 150 minutes reaction; ten-point titration
Protocol: The enzymatic activity of RIPK1 is measured using an assay derived from ADP-Glo kit (™Promega), which provides a luminescent-based ADP detection system. Specifically, the ADP generated by RIPK1 kinase is proportionally detected as luminescent signals in a homogenous fashion. In this context, the assessment of the inhibitory effect of small molecules (EC50) is measured by the effectiveness of the compounds to inhibit the ATP to ADP conversion by RIPK1.
In this assay, the potency (EC50) of each compound was determined from a ten-point (1:3 serial dilution; top compound concentration of 100000 nM) titration curve using the following outlined procedure. To each well of a white ProxiPlus 384 well-plate, 30 nL of compound (1% DMSO in final assay volume of 3 μL) was dispensed, followed by the addition of 2 μL of 1× assay buffer (25 mM Hepes 7.3, 20 mM MgCl2, 50 mM NaCl, 1 mM DTT, 0.005% Tween20, and 0.02% BSA) containing 37.5 nM of GST-RIPK1 (recombinant GST-RIPK1 kinase domain (residues 1-327) enzyme produced from baculovirus-transfected Sf21 cells: MW=62 kDa). Plates were placed in an ambient temperature humidified chamber for a 30 minutes pre-incubation with compound. Subsequently, each reaction was initiated by the addition of 1 μL 1× assay buffer containing 900 μM ATP and 3 μM dephosphorylated-MBP substrate. The final reaction in each well of 3 μL consists of 25 nM of GST-RIPK1, 300 μM ATP, and 3 μM dephosphorylated-MBP. Kinase reactions were allowed to proceed for 150 minutes prior to adding ADP-Glo reagents per Promega's outlined kit protocol. Dose-response curves were generated by plotting percent effect (% product conversion; Y-axis) vs. Log10 compound concentrations (X-axis). EC50 values were calculated using a non-linear regression, four-parameters sigmoidal dose-response model.

RIPK1 (recombinant GST-RIPK1 kinase domain, residues 1-327), sequence (Q13546 1-327): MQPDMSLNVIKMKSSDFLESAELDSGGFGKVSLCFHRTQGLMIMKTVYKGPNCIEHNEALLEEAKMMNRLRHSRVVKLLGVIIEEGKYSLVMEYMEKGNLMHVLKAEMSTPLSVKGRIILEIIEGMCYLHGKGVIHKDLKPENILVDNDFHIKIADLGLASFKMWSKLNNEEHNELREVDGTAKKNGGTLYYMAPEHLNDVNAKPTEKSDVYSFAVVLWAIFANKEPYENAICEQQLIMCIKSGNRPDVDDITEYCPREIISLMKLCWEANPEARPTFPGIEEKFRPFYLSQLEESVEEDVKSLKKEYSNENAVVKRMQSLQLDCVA

Structure (SMILES)	IC50
CC(C(=O)N1C[C@@H]2C[C@H]1c1ccccc1O2)(C(F)(F)F)C(F)(F)F [Compound 1-24, 1-[(2S,5S)-2,3-dihydro-2,5-methano-1,4-benzoxazepin-4(5H)-yl]-3,3,3-trifluoro-2-methyl-2-(trifluoromethyl)propan-1-one]	0.069 µM
CN(C)C1(C(=O)N2C[C@@H]3C[C@H]2c2ccccc2O3)CCC1 [Compound 1-25, [(2S,5S)-2,3-dihydro-2,5-methano-1,4-benzoxazepin-4(5H)-yl][1-(dimethylamino)cyclobutyl] methanone]	0.14 µM
O=C(N1C[C@@H]2C[C@H]1c1ccccc1O2)C1(C(F)(F)F)CCCC1 [Compound 1-26, [(2S,5S)-2,3-dihydro-2,5-methano-1,4-benzoxazepin-4(5H)-yl][1-(trifluoromethyl)cyclopentyl]methanone]	0.06 µM
CC(C)(C(=O)N1C[C@@H]2C[C@H]1c1ccccc1O2)C1CC1 [Compound 1-28, 2-cyclopropyl-1-[(2S,5S)-2,3-dihydro-2,5-methano-1,4-benzoxazepin-4(5H)-yl]-2-methylpropan-1-one]	0.022 µM
O=C(N1C[C@@H]2C[C@H]1c1ccccc1O2)C1(C(F)F)CCC1 [Compound 1-29, [1-(difluoromethyl)cyclobutyl] [(2S,5S)-2,3-dihydro-2,5-methano-1,4-benzoxazepin-4(5H)-yl]methanone]	0.058 µM
N#CC1(C(=O)N2C[C@@H]3C[C@H]2c2ccccc2O3)CCC1 [Compound 1-30, 1-[(2S,5S)-2,3-dihydro-2,5-methano-1,4-benzoxazepine-4(5H)-carbonyl]cyclobutane-1-carbonitrile]	0.076 µM
CC1(C(=O)N2C[C@@H]3C[C@H]2c2ccccc2O3)CC(F)(F)C1 [Compound 1-31, (3,3-difluoro-1-methylcyclobutyl)[(2S,5S)-2,3-dihydro-2,5-methano-1,4-benzoxazepin-4(5H)-yl]methanone]	0.157 µM
CC(CF)(CF)C(=O)N1C[C@@H]2C[C@H]1c1ccccc1O2 [Compound 1-33, 1-[(2S,5S)-2,3-dihydro-2,5-methano-1,4-benzoxazepin-4(5H)-yl]-3-fluoro-2-(fluoromethyl)-2-methylpropan-1-one]	0.881 µM
N#Cc1cc(N2CCC(C(=O)N3C[C@@H]4C[C@H]3c3ccccc3O4)CC2)ncn1 [Compound 1-36, 6-{4-[(2S,5S)-2,3-dihydro-2,5-methano-1,4-benzoxazepine-4(5H)-carbonyl]piperidin-1-yl}pyrimidine-4-carbonitrile]	0.327 µM
O=C(C1CCN(c2ncnc3scnc23)CC1)N1C[C@@H]2C[C@H]1c1ccccc1O2 [Compound 1-37, [(2S,5S)-2,3-dihydro-2,5-methano-1,4-benzoxazepin-4(5H)-yl][1-([1,3]thiazolo[5,4-d]pyrimidin-7-yl)piperidin-4-yl]methanone]	0.124 µM
O=C(N1C[C@@H]2C[C@H]1c1ccccc1O2)C12CC(C1)C2 [Compound 1-38, (bicyclo[1.1.1]pentan-1-yl)[(2S,5S)-2,3-dihydro-2,5-methano-1,4-benzoxazepin-4(5H)-yl]methanone]	0.146 µM
O=C(C1CCN(c2nccn3ncnc23)CC1)N1C[C@@H]2C[C@H]1c1ccccc1O2 [Compound 1-39, [(2S,5S)-2,3-dihydro-2,5-methano-1,4-benzoxazepin-4(5H)-yl][1-([1,2,4]triazolo[1,5-a]pyrazin-8-yl)piperidin-4-yl]methanone]	0.213 µM
O=C(N1C[C@@H]2C[C@H]1c1ccccc1O2)C12CCC(F)(CC1)C2 [Compound 1-40, ((2S,5S)-2,3-dihydro-2,5-methanobenzo[f][1,4]oxaze-pin-4(5H)-yl)(4-fluorobicyclo[2.2.1]heptan-1-yl)methanone]	0.023 µM
O=C(N1C[C@@H]2C[C@H]1c1ccccc1O2)C12CCC(C(F)F)(CC1)C2 [Compound 1-41, (4-(difluoromethyl)bicyclo [2.2.1]heptan-1-yl)((2S,5S)-2,3-dihydro-2,5-methanobenzo[f][1,4]oxaze-pin-4(5H)-yl)methanone]	0.013 µM
CC12CC(C(=O)N3C[C@@H]4C[C@H]3c3ccccc3O4)(CO1)C2 [Compound 1-42, [(2S,5S)-2,3-dihydro-2,5-methano-1,4-benzoxazepin-4(5H)-yl](1-methyl-2-oxabicyclo[2.1.1]hexan-4-yl)methanone]	0.922 µM
O=C(N1C[C@@H]2C[C@H]1c1ccccc1O2)C12CCC(CC1)CC2 [Compound 1-43, (bicyclo[2.2.2]octan-1-yl)[(2S,5S)-2,3-dihydro-2,5-methano-1,4-benzoxazepin-4(5H)-yl]methanone]	0.018 µM
O=C(N1C[C@@H]2C[C@H]1c1ccccc1O2)C12CCC(C(F)(F)F)(CC1)C2 [Compound 1-44, [(2S,5S)-2,3-dihydro-2,5-methano-1,4-benzoxazepin-4(5H)-yl][4-(trifluoromethyl)bicyclo [2.2.1]heptan-1-yl]methanone]	0.017 µM
CC1(C)C2CCC1(C(=O)N1C[C@@H]3C[C@H]1c1ccccc1O3)CC2 [Compound 1-45, [(2S,5S)-2,3-dihydro-2,5-methano-1,4-benzoxazepin-4(5H)-yl](7,7-dimethylbicyclo[2.2.1]heptan-1-yl)methanone]	0.168 µM
COC12CCC(C(=O)N3C[C@@H]4C[C@H]3c3ccccc3O4)(CC1)C2 [Compound 1-46, [(2S,5S)-2,3-dihydro-2,5-methano-1,4-benzoxazepin-4(5H)-yl](4-methoxybicyclo[2.2.1]heptan-1-yl)methanone]	0.117 µM
N#CC12CCC(C(=O)N3C[C@@H]4C[C@H]3c3ccccc3O4)(CC1)CC2 [Compound 1-47, 4-[(2S,5S)-2,3-dihydro-2,5-methano-1,4-benzoxazepine-4(5H)-carbonyl]bicyclo[2.2.2] octane-1-carbonitrile]	0.281 µM
CC1(C(=O)N2C[C@@H]3C[C@H]2c2ccccc2O3)CCN(c2cc(C#N)ncn2)CC1 [Compound 1-48, 6-{4-[(2S,5S)-2,3-dihydro-2,5-methano-1,4-benzoxazepine-4(5H)-carbonyl]-4-methylpiperidin-1-yl}pyrimidine-4-carbonitrile]	0.375 µM
N#Cc1cc(N2CCC(F)(C(=O)N3C[C@@H]4C[C@H]3c3ccccc3O4)CC2)ncn1 [Compound 1-49, 6-{4-[(2S,5S)-2,3-dihydro-2,5-methano-1,4-benzoxazepine-4(5H)-carbonyl]-4-fluoropiperidin-1-yl}pyrimidine-4-carbonitrile]	0.117 µM
O=C(N1C[C@@H]2C[C@H]1c1ccccc1O2)C12CCC(c3ccccc3)(CC1)CC2 [Compound 1-51, [(2S,5S)-2,3-dihydro-2,5-methano-1,4-benzoxazepin-4(5H)-yl](4-phenylbicyclo[2.2.2]octan-1-yl)methanone]	0.723 µM
O=C(N1C[C@@H]2C[C@H]1c1ccccc1O2)C12CC(C(F)(F)F)(C1)C2 [Compound 1-52, [(2S,5S)-2,3-dihydro-2,5-methano-1,4-benzoxazepin-4(5H)-yl][3-(trifluoromethyl)bicyclo [1.1.1]pentan-1-yl]methanone]	0.199 µM
O=C(N1C[C@@H]2C[C@H]1c1ccccc1O2)C12CCC(C(F)(F)F)(CC1)CC2 [Compound 1-53, [(2S,5S)-2,3-dihydro-2,5-methano-1,4-benzoxazepin-4(5H)-yl][4-(trifluoromethyl)bicyclo [2.2.2]octan-1-yl]methanone]	0.51 µM
O=C(N1C[C@@H]2C[C@H]1c1ccccc1O2)C12CCC(C(F)F)(CC1)CC2 [Compound 1-54, [4-(difluoromethyl)bicyclo [2.2.2]octan-1-yl][(2S,5S)-2,3-dihydro-2,5-methano-1,4-benzoxazepin-4(5H)-yl]methanone]	0.263 µM
COC(=O)C12CCC(C(=O)N3C[C@@H]4C[C@H]3c3ccccc3O4)(CC1)C2 [Compound 1-55, methyl 4-[(2S,5S)-2,3-dihydro-2,5-methano-1,4-benzoxazepine-4(5H)-carbonyl]bicyclo[2.2.1] heptane-1-carboxylate]	0.043 µM
CC(C)(CC#N)C(=O)N1C[C@@H]2C[C@H]1c1ccccc1O2 [Compound 1-57, 4-[(2S,5S)-2,3-dihydro-2,5-methano-1,4-benzoxazepin-4(5H)-yl]-3,3-dimethyl-4-oxobutanenitrile]	0.056 µM
COc1ccc(CC(C)(C)C(=O)N2C[C@@H]3C[C@H]2c2ccccc2O3)cc1 [Compound 1-58, 1-[(2S,5S)-2,3-dihydro-2,5-methano-1,4-benzoxazepin-4(5H)-yl]-3-(4-methoxyphenyl)-2,2-dimethylpropan-1-one]	0.887 µM
CC(C)(C#N)C(=O)N1C[C@@H]2C[C@H]1c1ccccc1O2 [Compound 1-59, 3-[(2S,5S)-2,3-dihydro-2,5-methano-1,4-benzoxazepin-4(5H)-yl]-2,2-dimethyl-3-oxopropanenitrile]	0.159 µM
